Consider seven compounds from patent publication US9744252B2, “Compounds for binding to the platelet specific glycoprotein IIb/IIIa and their use for imaging of thrombi” (PIRAMAL IMAGING SA, priority 2011, dated 2017).

The conditions of series [1]: male, Wistar, rat, 0.3 μM, pH 7.4.
Protocol: (§1) Human liver microsomes in suspension (protein content 0.5 mg/mL) were used for metabolic stability studies. The incubation concentration was 0.3 μM. […] After addition of 30 μL of test compound the assay was started. The compound was dissolved in an organic solvent and diluted with the same liver microsome medium in order to keep the organic content below the recommended concentration (dimethylsulfoxide DMSO <0.2% and methanol <1%). […] The samples were frozen over night at −20° C. The solutions were centrifuged for 15 min at 3000 g. The clear supernatant (100 μL) was used to determine the concentration. The analysis was performed with an Agilent 1200 HPLC system with a LCMS/MS detector.
(§2) The susceptibility of investigated compounds to degradation by phase-I oxidative metabolism was investigated using liver microsomes from different species.
Series [2] in a line: In vitro metabolic stability in liver microsomes, mouse. Conditions: NMRI, female, 0.3 μM, calculated. The format is in vitro ADME. The method, then:
In Vitro Metabolic Stability in Liver Microsomes
The incubation concentration was 0.3 μM. […] The samples were frozen over night at −20° C.
The recovery was almost 100% for all investigated species.

The conditions of series [3]: both, human, 0.3 μM, pH 7.4.
Protocol: as §1, §2
For series [4] the following is noted: female, cynomolgus monkey, 0.3 μM, pH 7.4.
Protocol: as §1, §2
The next series has as its system human thrombi. As to the kind of experiment: Ex vivo blood flow model: binding to human thrombi, with cold-compound competition. Conditions: 3 minutes post-injection of 18F-labeled compound; ± SEM. The text has this: Binding to Human Thrombi:
The binding of compounds to thrombi was further investigated in an ex vivo blood flow model similar to that described in “Wakhloo, A. K. et al. Thrombus and stroke 2008, in vitro models 57-66” but modified with regard to thrombus development. Briefly, an open handmade tube-set consisting of tygon-tubes (Tygon R-1000, part No AAU00007: I.D. 3.2 mm, O.D. 6.4 mm, Saint Gobain Performance Plastics North America), intermediate tubes (Intrafix® Infusion set, B. Braun, Melsungen, Germany) an open reservoir (10 mL Combitip, Eppendorf) and a chamber made of a piece of polyethylene-Tube, ([…] Polyethylene Tubing, Clay Adams, PE160, length: 6.5 cm) containing a loop of a roughened thread (fishing line: Okuma UltraMax whitefish, diameter: 0.14 mm, length: 5 cm; sandpaper: CAMI Grit designation: 600, CP918a, VSM) was used for thrombus formation. The connection between the intermediate tube and the thrombus chamber was made by trimmed tips (epTIPS, 200 μL, Eppendorff, Hamburg/Germany). The Reservoir and the thrombus chamber were fixed by clamps and stands. A peristaltic-pump (Minipuls 3, Gilson, Middelton/USA) was used to pump the blood around thereby adjusting the flow in the middle of the thrombus chamber to 70-90 cm per second, which was monitored by ultrasound Doppler measurement (Vevo 770 High-Resolution In Vivo Micro-Imaging System, VisualSonics, Toronto/Ontario, Canada; Scanhead: RMV 704, 40 MHz). The volume of the entire tube-set was 7.5 or 15 mL.
For each experiment fresh blood was taken from a volunteer using 10 mL citrate-tubes (Sarstedt S-Monovette 02.1067.001, 10 mL, Citrate 3.13%) and immediately laid into the turning-device of an incubator at a temperature of 37° C. (Heraeus miniTherm CTT with integrated rotation- and turning device, turning speed: 19 rotations per minute, Heraeus Instruments GmbH, Hanau/Germany). As needed, two tubes were taken out of the turning-device and 15 mL were transferred to a 20 mL Syringe (Omnifix®, B. Braun, Melsungen/Germany) and gently mixed with 0.75 mL CaCl2—Solution before the peristaltic pump was started and the whole content of the syringe was transferred into the reservoir of the tube-set via a cell strainer (BD Falcon™ cell strain, 40 μm, BD, Franklin Lakes, N.J. USA). […] Then, the pump was stopped, aliquots were taken from the blood and the thrombus together with the roughened thread was removed from the thrombus-chamber before both was weighted and measured in a gamma counter (Automatic Gamma Counter Wizard^2 3, Perkin Elmer). […] Finally the activity of the compound in blood and thrombus as well as the ratio between both was determined (cpm/weight [mg]). […]

Series [5] is described as follows: Pharmacokinetics / biodistribution in mice. The format is in vivo. The note with it: nude mice, 185 KBq. The method, then:
FIG. 3: Biodistribution of the compound described in example 41 in mice.
The biodistribution of the compound described in example 41 was determined in nude mice. Briefly, the mice received 185 KBq of the compound each. At different time points (1, 3, 10, 30, 120 minutes p.i., 3 mice per group) the animals were sacrificed and the organs of interest or aliquots thereof were removed, weighted and finally measured in a gamma counter (Automatic Gamma Counter Wizard^2 3, Perkin Elmer).

The nature of series [6]: Blood clearance in a cynomolgus monkey (PET and gamma counter). The class given is in vivo. Conditions: 25 MBq i.v., PET. Here is the method:
FIG. 4: Blood kinetics of the compound described in example 40 in cynomolgus monkey.
PET-imaging was performed continuously from shortly before up to 60 minutes post injection. Venous blood samples were taken at 3, 10, 30 and 60 minutes p.i. and were measured in a gamma-counter (Automatic Gamma Counter Wizard^2 3, Perkin Elmer) and expressed as cpm/mg blood. Additionally, the blood-concentration of the compound was measured from the PET-Image over the whole imaging period and expressed as % ID/g.
Blood Clearance in a Cynomolgus Monkey
The blood clearance of the compound described in example 40 has been determined in a cynomolgus monkey. A female cynomolgus monkey was anesthetized with a mixture of Xylazin (Rompun®, Bayer HealthCare, Leverkusen, Germany), 0.12 mL/kg bodyweight and Ketamine (Ketavet®, Pfizer) 0.12 mL/kg bodyweight i.m. The monkey was placed inside the PET-scanner (Inveon PET/CT, Siemens Medical, Erlangen) and 25 MBq of the compound has been injected i.v. while PET-imaging was performed continuously from shortly before up to 60 minutes post injection. Venous blood samples were taken at 3, 10, 30 and 60 minutes p.i. and were measured in a gamma-counter (Automatic Gamma Counter Wizard^2 3, Perkin Elmer). Additionally, the blood-concentration of the compound was measured from the PET-Image over the whole imaging period (FIG. 4).

In series [7] the test system is arterial and venous thrombi. In words: Thrombus PET imaging and in vivo clot-to-blood ratio in cynomolgus monkeys. More on the design: species or system cynomolgus monkey. Here is the method: Thrombus-Imaging in Cynomolgus Monkeys
The ability of the compound described in example 40 for the imaging of thrombi was investigated in a PET-study with cynomolgus monkeys (female, 2.8-3.2 kg).
The first monkey was anesthetized with a mixture of Xylazin (Rompun®, Bayer HealthCare, Leverkusen, Germany), 0.12 mL/Kg and Ketamine (Ketavet®, Pfizer) 0.12 mL/Kg b.w. i.m. and additionally analgesized by an i.m. injection of 6 μg Buprenorphine per kg. While the investigation, small amounts of Ketamine have been injected i.m. if required. The left common carotid artery was exposed surgically and a polyethylene-tube ([…] Polyethylene Tubing, Clay Adams, PE50), which was roughened previously by sandpaper (600—CAMI Grit designation), was inserted into the vessel, advanced into the descending aorta and was left there for 30 minutes to allow for the development of a thrombus on the rough surface of the tube. Meanwhile, the monkey was placed inside the PET-scanner (Inveon PET/CT, Siemens Medical, Erlangen). […] The thickness of this layer was far below 1 mm (see also removed thrombus of Monkey 2, FIG. 7) and therewith also far below the resolution of the image, which is approximately 1 mm. This also means, that even slightest thrombi, even if their size is far less than the resolution of the imaging-device, can be visualized due to the massive accumulation of compound on the platelets of the thrombi.
At the end of the experiment the tube was removed carefully from the vessel before it was weighted and measured in a gamma counter (Automatic Gamma Counter Wizard^2 3, Perkin Elmer). […] Finally the activity of the compound in blood and thrombus as well as the ratio between the two was determined (cpm/weight [mg]). […]
The in vivo clot-to-blood ratio was determined from 5 thrombi out of the above described monkey experiments. As already mentioned above the thrombi had been removed from the vessels after imaging and had been weighted and measured in a gamma-counter (Automatic Gamma Counter Wizard^2 3, Perkin Elmer) together with blood samples taken from the animal. After incubation of the thrombi in Plasmin (Plasmin from Human Plasma, Sigma Aldrich, Plasmin-stock-solution: 500 μg Plasmin in 500 μL Tris-buffer (150 μM, pH 7.8), 20 μL Plasmin-stock-solution to 230 μL saline solution 0.9%) and removal of the thrombi from the catheter tubes, the netto weight of the thrombi was calculated and the concentration of the compound in thrombus (clot) and blood, as well as the ratio between the two was calculated.

Series [8] can be described thus: In vitro metabolic stability in liver microsomes, human. The note with it: all investigated species.
Protocol: as §1, §2

Where “and” joins values, the source holds several entries; their conditions need not be identical. Equal entries are not always repeated. Entries after “also recorded” stand apart in the source; their conditions may differ. Where two headings read alike, the source gives them in different places.

Turning to `O=C(O)C[C@H](NC(=O)[C@@H]1CCCN(C(=O)CCC2CCNCC2)C1)c1cncc(OCCF)c1` [Example 3, (3S)-3-[5-(2-Fluoroethoxy)pyridin-3-yl]-3-[({(3R)-1-[3-(piperidin-4-yl)propanoyl]-piperidin-3-yl}carbonyl)amino]propanoic acid], the “CLblood” value in series [1], in [2], in series [3] and in [4] was 2.4 mL/day/kg in each case.
Consider `O=C(O)C[C@H](NC(=O)[C@@H]1CCCN(C(=O)CCC2CCNCC2)C1)c1cncc(-c2ccc(OCC[18F])cc2)c1` [Example 41, (3S)-3-{5-[4-(2-[^18F]Fluoroethoxy)phenyl]pyridin-3-yl}-3-[({(3R)-1-[3-(piperidin-4-yl)propanoyl]piperidin-3-yl}carbonyl)amino]propanoic acid], for which the “Accumulation Thrombus [10^3 cpm/mg]” value in the series with human thrombi is given as 44 ± 7 (n = 6) 10^3 cpm/mg. In addition, in [5], the “elimination from the blood” value is “rapidly eliminated from the blood”; the “enhancement in the vessel-wall” value is “no enhancement in the vessel-wall”; the excretion result was “quickly excreted over the kidney and liver”.
As to `O=C(O)C[C@H](NC(=O)[C@@H]1CCCN(C(=O)CCC2CCNCC2)C1)c1cccc(OCC[18F])c1` [Example 38, (3S)-3-[3-(2-[^18F]Fluoroethoxy)phenyl]-3-[({(3R)-1-[3-(piperidin-4-yl)propanoyl]piperidin-3-yl}carbonyl)amino]propanoic acid], the “Accumulation Thrombus [10^3 cpm/mg]” value in the series with human thrombi is 41 ± 3 (n = 5) 10^3 cpm/mg.
`O=C(O)C[C@H](NC(=O)[C@@H]1CCCN(C(=O)CCC2CCNCC2)C1)c1ccc(OCC[18F])cc1` [Example 39, (3S)-3-[4-(2-[^18F]Fluoroethoxy)phenyl]-3-[({(3R)-1-[3-(piperidin-4-yl)propanoyl]piperidin-3-yl}carbonyl)amino]propanoic acid]: the “Accumulation Thrombus [10^3 cpm/mg]” value with human thrombi was 86 ± 9 (n = 6) 10^3 cpm/mg.
Regarding `O=C(O)C[C@H](NC(=O)[C@@H]1CCCN(C(=O)CCC2CCNCC2)C1)c1cncc(OCC[18F])c1` [Example 40, (3S)-3-[5-(2-[^18F]Fluoroethoxy)pyridin-3-yl]-3-[({(3R)-1-[3-(piperidin-4-yl)propanoyl]piperidin-3-yl}carbonyl)amino]propanoic acid], in [6], the “contrast in the brain” value is “completely free of contrast” and the “signal in other tissue” value is on record as “only marginal signal visible in any other tissue”. Moreover, the “Blood [cpm/mg]” value in series [7] (blood samples after imaging, Cynomolgus monkey) was 90 cpm/mg and 130 cpm/mg and 100 cpm/mg. In addition, the “PET signal / accumulation in thrombi” value in series [7] (cynomolgus monkeys, 25 MBq or 15 MBq i.v., up to 60 minutes p.i.) is “bright signal inside the descending aorta alongside the roughened part of the tube; also recorded: all arterial and venous thrombi showed a bright signal; also recorded: surprisingly high accumulation even in slightest venous and arterial thrombi”. The “retention within the thrombus” value in [7] (cynomolgus monkeys, 60 minutes shown) was “almost completely remains within the thrombus over a long time”. In [7] (cynomolgus monkeys, PET), the “background in surrounding tissue or organ” value is reported as “almost no background in any surrounding tissue or organ”.
`O=C(O)C[C@H](NC(=O)[C@@H]1CCCN(C(=O)CCC2CCNCC2)C1)c1cncc(OCCF)c1` [Compound 3] had a recovery in series [8] of approximately 100%.
As to `N#Cc1cc(-c2cncc([C@H](CC(=O)O)NC(=O)[C@@H]3CCCN(C(=O)CCC4CCNCC4)C3)c2)ccc1[18F]` [Example 42, (3S)-3-[5-(3-Cyano-4-[^18F]fluorophenyl)pyridin-3-yl]-3-[({(3R)-1-[3-(piperidin-4-yl)propanoyl]piperidin-3-yl}carbonyl)amino]propanoic acid], the “Accumulation Thrombus [10^3 cpm/mg]” value with human thrombi is on record as 39 ± 5 (n = 6) 10^3 cpm/mg.
